Test results taken from patent publication US7629349B2, “Pyrazolo [3,4-d] pyrimidine derivatives and their use as purinergic receptor antagonists” (Vernalis Research Limited, priority 2001, dated 2009).
Counter-ions that a name gives are not always drawn.

Molecular target: human adenosine A2A receptor (Homo sapiens, UniProt P29274)
Assay: Binding affinities at hA2A receptors, displacement of [3H]-CGS 21680
Conditions: not given

Sequence of human adenosine A2A receptor (P29274 whole entry): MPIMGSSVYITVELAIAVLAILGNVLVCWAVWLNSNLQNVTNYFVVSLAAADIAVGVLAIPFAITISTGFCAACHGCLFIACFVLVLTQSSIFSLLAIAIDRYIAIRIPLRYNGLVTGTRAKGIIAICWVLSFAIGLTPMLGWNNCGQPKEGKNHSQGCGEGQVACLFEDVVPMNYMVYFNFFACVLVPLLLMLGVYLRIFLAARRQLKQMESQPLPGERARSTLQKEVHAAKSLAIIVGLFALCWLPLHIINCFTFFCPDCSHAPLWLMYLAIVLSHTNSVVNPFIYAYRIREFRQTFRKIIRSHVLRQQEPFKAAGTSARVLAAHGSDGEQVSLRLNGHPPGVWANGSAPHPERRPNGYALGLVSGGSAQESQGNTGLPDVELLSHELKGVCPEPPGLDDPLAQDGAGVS

Ki [nM] | SMILES
2 | Nc1nc(-c2ccco2)c2cnn(Cc3ccccc3F)c2n1 [Example 14, 1-(2-fluorobenzyl)-4-(2-furyl)-1H-pyrazolo[3,4-d]pyrimidine-6-amine]
5 | Nc1nc(-c2cccs2)c2cnn(Cc3ccccc3F)c2n1 [Example 28, 1-(2-fluorobenzyl)-4-(2-thienyl)-1H-pyrazolo[3,4-d]pyrimidine-6-amine]
2 | Nc1nc(-c2ccco2)c2cnn(CCCc3ccccc3)c2n1 [Example 31, 4-(2-furyl)-1-(3-phenylpropyl)-1H-pyrazolo[3,4-d]pyrimidine-6-amine]

Further lines, the compound ahead of its results:

SMILES | Ki [nM]
Cc1cccc(Cn2ncc3c(-c4ccco4)nc(N)nc32)c1 [Example 15, 4-(2-furyl)-1-(3-methylbenzyl)-1H-pyrazolo[3,4-d]pyrimidine-6-amine] | 2
Nc1nc(-c2nnc[nH]2)c2cnn(Cc3ccccc3F)c2n1 [Example 51, 1-(2-fluorobenzyl)-4-(1,2,4-triazol-3-yl)-1H-pyrazolo[3,4-d]pyrimidine-6-amine] | 71

Same assay, conditions: human adenosine A2A receptor, radioligand [3H]-CGS 21680

Ki [nM] | SMILES
9 | Nc1nc(-c2ccco2)c2cnn(Cc3ccccc3Cl)c2n1 [Example 11, 1-(2-chlorobenzyl)-4-(2-furyl)-1H-pyrazolo[3,4-d]pyrimidine-6-amine]
2 | COc1cccc(Cn2ncc3c(-c4ccco4)nc(N)nc32)c1 [Example 12, 4-(2-furyl)-1-(3-methoxybenzyl)-1H-pyrazolo[2,4-d]pyrimidine-6-amine]
6 | Nc1nc(-c2ccco2)c2cnn(Cc3ccc(C(F)(F)F)cc3)c2n1 [Example 22, 4-(2-furyl)-1-(4-trifluoromethylbenzyl)-1H-pyrazolo[3,4-d]pyrimidine-6-amine]
2 | Nc1nc(-c2ccco2)c2cnn(Cc3c(F)cccc3F)c2n1 [Example 24, 1-(2,6-difluorobenzyl)-4-(2-furyl)-1H-pyrazolo[3,4-d]pyrimidine-6-amine]
4 | Nc1nc(-c2ccco2)c2cnn(Cc3cccc([N+](=O)[O-])c3)c2n1 [Example 30, 4-(2-furyl)-1-(3-nitrobenzyl)-1H-pyrazolo[3,4-d]pyrimidine-6-amine]
4 | Nc1cccc(Cn2ncc3c(-c4ccco4)nc(N)nc32)c1 [Example 32, 1-(3-aminobenzyl)-4-(2-furyl)-1H-pyrazolo[3,4-d]pyrimidine-6-amine]
12 | Nc1nc(-c2ccccn2)c2cnn(Cc3ccccc3F)c2n1 [Example 33, 1-(2-fluorobenzyl)-4-(2-pyridyl)-1H-pyrazolo[3,4-d]pyrimidine-6-amine]

Continued, compound first:

SMILES | Ki [nM]
Nc1nc(-c2ccn[nH]2)c2cnn(Cc3ccccc3F)c2n1 [Example 55, 1-(2-fluorobenzyl)-4-(3-pyrazolyl)-1H-pyrazolo[3,4-d]pyrimidine-6-amine] | 16
Nc1nc(-c2ccco2)c2cnn(Cc3ccccc3N)c2n1 [Example 56, 1-(2-aminobenzyl)-4-(2-furyl)-1H-pyrazolo[3,4-d]pyrimidine-6-amine] | 8

Tested on: not given
Assay: not given
Conditions: not given

melting point [°C] | SMILES
218 | CCCCCn1ncc2c(-c3ccco3)nc(N)nc21 (as salt: HCl) [Example 23, 4-(2-furyl)-1-n-pentyl-1H-pyrazole[3,4-d]pyrimidine-6-amine]
249.8 to 249.9 | Nc1nc(-c2ccco2)c2cnn(CC(=O)Nc3ccccn3)c2n1 (as salt: HCl) [Example 29, 6-amino-4-(2-furyl)-N-(2-pyridyl)-1H-pyrazolo[3,4-d]pyrimidin-1-ylacetamide]
85.1 to 85.6 | Clc1nc(-c2ccco2)c2cnn(CCc3ccccc3)c2n1 [Example 1, 6-chloro-4-(2-furyl)-1-(2-phenylethyl)-1H-pyrazolo[3,4-d]pyrimidine]
177 to 177.1 | CCOC(=O)Cn1ncc2c(-c3ccco3)nc(N)nc21 [Example 26, ethyl 6-amino-4-(2-furyl)-1H-pyrazolo[3,4-d]pyrimidine-1-ylacetate]
276.8 to 277.2 | Nc1nc(-c2ccco2)c2cnn(CC(=O)NCc3ccccc3)c2n1 [Example 34, 6-amino-N-benzyl-4-(2-furyl)-1H-pyrazolo[3,4-d]pyrimidin-1-ylacetamide]
276.8 to 277.2 | Nc1nc(-c2ccco2)c2cnn(CC(=O)Nc3ccccc3)c2n1 [Example 35, 6-amino-4-(2-furyl)-N-phenyl-1H-pyrazolo[3,4-d]pyrimidin-1-ylacetamide]
231.1 to 231.2 | Nc1nc(-c2ccco2)c2cnn(CC(=O)NCCc3ccccc3)c2n1 [Example 44, 6-amino-4-(2-furyl)-N-(2-phenylethyl)-1H-pyrazolo[3,4-d]pyrimidin-1-ylacetamide]
276.2 to 278.5 | Nc1nc(-c2ccco2)c2cnn(CC(=O)Nc3ccccc3F)c2n1 [Example 45, 6-amino-N-(2-fluorophenyl)-4-(2-furyl)-1H-pyrazolo[3,4-d]pyrimidin-1-ylacetamide]
278.5 to 279 | Nc1nc(-c2ccn[nH]2)c2cnn(Cc3cccc([N+](=O)[O-])c3)c2n1 [Example 59, 1-(3-nitrobenzyl)-4-(3-pyrazolyl)-1H-pyrazolo[3,4-d]pyrimidine-6-amine]
171 to 172 | COc1cccc(Cn2ncc3c(-c4ccn[nH]4)nc(N)nc32)c1 [Example 64, 1-(3-methoxybenzyl)-4-(1H-pyrazol-3-yl)-1H-pyrazolo[3,4-d]pyrimidine-6-amine]

More lines, now with the values behind:

SMILES | melting point [°C]
CC(C)n1ncc2c(-c3ccco3)nc(N)nc21 (as salt: HCl) [Example 21, 4-(2-furyl)-1-(1-methylethyl)-1H-pyrazolo[3,4-d]pyrimidine-6-amine] | 191.4 to 191.5
CC(C)(C)OC(=O)n1ncc2c(-c3ccco3)nc(N)nc21 [Example 4, tert-butyl 6-amino-4-(2-furyl)-1H-pyrazolo[3,4-d]pyrimidine-1-carboxylate] | 261.9 to 262.7
Nc1nc(-c2ccco2)c2cnn(CC(=O)NCc3ccco3)c2n1 [Example 37, 6-amino-4-(2-furyl)-N-(2-furylmetyl)-1H-pyrazolo[3,4-d]pyrimidin-1-ylacetamide] | 247.9 to 249.4
COc1cccc(NC(=O)Cn2ncc3c(-c4ccco4)nc(N)nc32)c1 [Example 43, 6-amino-4-(2-furyl)-N-(3-methoxyphenyl)-1H-pyrazolo[3,4-d]pyrimidin-1-ylacetamide] | 267.4 to 271.5
Cc1ccc(Cn2ncc3c(-c4ccn[nH]4)nc(N)nc32)cc1 [Example 50, 1-(4-methylbenzyl)-4-(1H-pyrazol-3-yl)-1H-pyrazolo[3,4-d]pyrimidine-6-amine] | 265.8
Nc1nc(-c2nnc[nH]2)c2cnn(Cc3ccccc3F)c2n1 [Example 51, 1-(2-fluorobenzyl)-4-(1,2,4-triazol-3-yl)-1H-pyrazolo[3,4-d]pyrimidine-6-amine] | 287.9
Nc1cccc(Cn2ncc3c(-c4nnc[nH]4)nc(N)nc32)c1 [Example 60, 1-(3-aminobenzyl)-4-(1,2,4-triazol-3-yl)-1H-pyrazolo[3,4-d]pyrimidine-6-amine] | 193.3 to 193.4
Nc1nc(-c2nccs2)c2cnn(Cc3cccc([N+](=O)[O-])c3)c2n1 [Example 61, 1-(3-nitrobenzyl)-4-(2-thiazolyl)-1H-pyrazolo[3,4-d]pyrimidine-6-amine] | 193.3 to 193.4
Nc1cccc(Cn2ncc3c(-c4nccs4)nc(N)nc32)c1 [Example 62, 1-(3-aminobenzyl)-4-(2-thiazolyl)-1H-pyrazolo[3,4-d]pyrimidine-6-amine] | 177.8 to 178.3

Tested on: Parkinsonian patients
Assay: not given
Conditions: 15 Parkinsonian patients, up to 12 weeks, 150 mg/day oral; cited from earlier work

SMILES | mean objective disability scores
Cn1c(=O)c2[nH]cnc2n(C)c1=O [theophylline, 1,3-dimethylxanthine] | significant improvements

Same assay, conditions: of 15 Parkinsonian patients, up to 12 weeks, 150 mg/day oral; cited from earlier work

SMILES | patients reporting moderate or marked subjective improvement
Cn1c(=O)c2[nH]cnc2n(C)c1=O [theophylline, 1,3-dimethylxanthine] | 11

Same assay, conditions: slow release oral theophylline preparation 150 mg/day, after one week; cited from earlier work

SMILES | serum theophylline levels [mg/L]
Cn1c(=O)c2[nH]cnc2n(C)c1=O [theophylline, 1,3-dimethylxanthine] | 4.44

Tested on: catalepsy
Assay: not given
Conditions: in vivo; cited from earlier work

SMILES | anticataleptic effects of a subthreshold dose of L-DOPA plus benserazide | catalepsy induced by haloperidol and reserpine
CCCn1c(=O)c2c(nc(/C=C/c3ccc(OC)c(OC)c3)n2C)n(CCC)c1=O [KF 17837, (E)-8-(3,4-dimethoxystyryl)-1,3-dipropyl-7-methylxanthine] | potentiated | reduced

Same assay, conditions: oral administration; cited from earlier work

SMILES | cataleptic responses induced by intracerebroventricular CGS 21680
CCCn1c(=O)c2c(nc(/C=C/c3ccc(OC)c(OC)c3)n2C)n(CCC)c1=O [KF 17837, (E)-8-(3,4-dimethoxystyryl)-1,3-dipropyl-7-methylxanthine] | significantly ameliorated
